Measured values published in patent US12723029B2, “Mitochondrial ATP inhibitors targeting the gamma subunit prevent metastasis” (LUNELLA BIOTECH, INC., priority 2020, dated 2026).

Columns and labels:
[1] = test system: mitochondrial ATP production in MDA-MB-231 cells; test: ATP assay using BioTracker ATP-Red 1 (flow cytometry); assay type: cell-based, human
Procedure: FIG. 7 compares the fold-change of BioTracker ATP-Red (signal mean) between the control and MDA-MB-231 cells treated with Bedaquiline. […] The data in FIG. 7 based on two-way ANOVA, Sidak's multiple comparisons test, *p<0.05, ** p<0.005, ***p<0.0005, ****p<0.0001.
ATP assay using BioTracker ATP-Red 1: Cells were stained with BioTracker ATP-Red 1 after various treatments. After 30 minutes of incubation, the cells were washed twice with DPBS, collected and dissociated into a single-cell suspension with a 40 μm cell strainer. The cells were analyzed using the Attune N×T Flow Cytometer. Means of the signal (at 570 nm) were compared.

[2] = test system: MDA-MB-231 cells; test: 3D anchorage independent growth (mammosphere formation) assay; assay type: cell-based, human
Procedure: 3D Anchorage Independent Growth Assay: This assay is also referred to as the mammosphere formation assay. A single-cell suspension was prepared using enzymatic, and manual disaggregation (25-g needle). Then, cells were plated at a density of 500 cells/cm^2 in mammosphere medium (DMEM-F12+1X B-27 Plus Supplement+20 ng/ml EGF+Pen/Strep) under non-adherent conditions, in culture dishes pre-coated with (2-hydroxyethylmethacrylate) (poly-HEMA, Sigma Aldrich Inc.), called “mammosphere plates.” Cells were grown for 5 days and maintained in a humidified incubator at 37° C. After 5 days of culture, 3D-mammospheres >50 μm were counted using an eye piece (“graticule”), and the percentage of cells plated which formed spheres was calculated and is referred to as percent mammosphere formation, and was normalized to one (1=100% MFE). 3D mammosphere formation efficiency (MFE) was analyzed in both the ATP-low and ATP-high sub-populations of cells. All 3D mammosphere experiments were performed in triplicate, at least 3 times independently.

[3] = test system: chick embryos; test: CAM assay: embryo toxicity; set-up: species or system chicken (White Leghorn); conditions: all concentrations tested in vivo; daily for 8 days
Procedure: Next, to test in vivo activity, the well-established CAM assay was used with MDA-MB-231 cells, to measure the effect of Bedaquiline effects on tumor growth, spontaneous metastasis and embryo toxicity. FIG. 11A illustrates the timeline for the CAM assay. An inoculum of 1×10^6 MDA-MB-231 cells was added onto the CAM of each egg (day E9) and then eggs were randomized into groups. On day E10, tumors were detectable and they were then treated daily for 8 days with vehicle alone (1% DMSO in PBS) or Bedaquiline. After 8 days of drug administration, on day E18, all tumors were weighed, and the lower CAM was collected to evaluate the number of metastatic cells, as analyzed by qPCR with specific primers for Human Alu sequences. Before each drug administration, treatment tolerability was evaluated by scoring the number of live and dead chicken embryos.
Tumor Growth, Metastasis and Embryo Toxicity Assays: Xenograft assays were carried out by INOVOTION (Société: 811310127), La Tronche-France. […] For tumor growth assays, at least 14 tumor samples were collected and analysed per group (N≥14). […] Genomic DNA was extracted from the CAM (commercial kit) and analyzed by qPCR with specific primers for Human Alu sequences. […] Before each administration, the treatment tolerability was evaluated by scoring the number of live and dead embryos.

[4] = test system: MDA-MB-231 cells; test: Cell migration assay (Transwells); assay type: cell-based, human; conditions: 10 μM, 32 hours then 16 hours in Transwells
Procedure: MDA-MB-231 cells were cultured in presence of Bedaquiline (10 μM) for 32 hours and moved to the Transwells for 16 hours in presence of Bedaquiline (10 μM). Unpaired t-test, **p<0.005.
Cell Migration Assays: Briefly, 3.5×10^4 cells in 0.5 ml of serum-free DMEM with 0.1% BSA were added to the wells of 8-μm pore, non-coated membrane modified Boyden chambers (Transwells). The lower chambers contained 10% fetal bovine serum in DMEM to serve as a chemo-attractant. Cells were incubated at 37° C. and allowed to migrate throughout the course of 16 hours. Noninvasive cells were removed from the upper surface of the membrane by scrubbing with cotton swabs. Chambers were stained in 0.5% crystal violet diluted in 100% methanol for 30-60 min, rinsed in water and examined under a bright-field microscope. Values for invasion and migration were obtained by counting five fields per membrane (20× objective) and represent the average of three independent experiments.

[5] = target: T1, ATP5F1C (Homo sapiens, UniProt P05496+P36542); test: Western blot of ATP5F1C protein expression in MDA-MB-231 2D monolayers; assay type: cell-based; conditions: 0.1, 1 and 10 μM, especially 10 μM, 24-120 hours, relative to DMSO
T1 construct: Western blot analysis of MDA-MB-231 2D cell monolayers treated with Bedaquiline; endogenous in cells; host or cells: MDA-MB-231 (ATCC)
Procedure: The binding of Bedaquiline to ATP5F1C in situ induces degradation of the protein. […] The effect was both time- and concentration-dependent.
(§1) Western Blotting: Cells were lysed in RIPA buffer (Sigma Aldrich, Inc.) containing one tablet of Complete TM inhibitor mix (Roche Applied Science, Indianapolis) and one tablet of PhosSTOP™ […] per 10 mL of buffer and loaded onto SDS-polyacrylamide gels. The gels were transferred to 0.2 μm nitrocellulose membranes, using the Trans-Blot Turbo Transfer System (Bio-Rad, Inc.) Membranes were incubated with the respective primary antibodies diluted in Tris-buffered saline, 0.1% Tween 20 (Sigma Aldrich, Inc.) and 5% Bovine Serum Albumin (BSA; Sigma Aldrich Inc.) (TBST), and incubated overnight at 4° C. Then, the blots were washed and incubated with appropriate secondary antibodies and detected using Super Signal West Pico Chemiluminescent Substrate (Thermo Scientific, Inc.), using the G-Box (Syngene, Inc). Antibodies and their dilutions used for Western blot analysis were as follows: mouse anti-ATP5F1C 1:500, mouse anti-β-actin 1:10,000, rabbit anti-PARP 1:1,000, rabbit anti-p21 1:1,000. The resulting immune-blot images were acquired using GeneSys Software (Syngene, Inc.).

[6] = test system: p21; test: Western blot of p21 protein expression; assay type: cell-based, human; conditions: MDA-MB; 0.1, 1 and 10 μM; 120 hours
Procedure: (§2) Beta-actin was used as a control for equal loading.
as §1

[7] = test system: PARP; test: Western blot of PARP protein expression; assay type: cell-based, human; conditions: MDA-MB; 0.1, 1 and 10 μM; 120 hours
Procedure: as §2, §1

[8] = test system: MCF10A cells; test: 2D monolayer growth, MCF10A; conditions: MCF10A normal control mammary epithelial cells; 10 μM
[9] = test system: MDA-MB-231 cells; test: Cell cycle analysis by FACS; assay type: cell-based, human
Procedure: FIGS. 10A-10C show cell cycle populations for MDA-MB-231 cells treated with Bedaquiline (1 and 10 μM) or vehicle alone, after 48, 72 and 120 hours, respectively. Cell cycle analysis was performed using FACS. […] However, at 72 and 120 hours, a decrease in the S-phase population and a concomitant increase in the sub-G0-G1 population can be seen in FIGS. 10B and 10C. Two-way ANOVA, Sidak's multiple comparisons test, ns=not significant, *p<0.01, **p<0.001, ***p<0.0005.
Cell Cycle Analysis by FACS: Cell-cycle analysis was performed on the ATP-high and ATP-low cell sub-populations, by FACS analysis using the Attune N×T Flow Cytometer. Briefly, after trypsinization, the re-suspended cells were incubated with propidium iodide, as per the manufacturer's recommendations (Merck Millipore, Inc.). At least 25,000 events were analyzed per condition. Gated cells were categorized into cell-cycle stages.

[10] = test system: MDA-MB-231 cells; test: CAM assay: tumor growth and spontaneous metastasis of MDA-MB-231 xenografts; assay type: in vivo, chicken embryo (White Leghorn eggs)
[11] = test system: MDA-MB-231 cells; test: 2D monolayer growth, MDA-MB-231; assay type: cell-based, human; conditions: 10 μM, time-dependent
[12] = test system: MDA-MB-231 cells; test: Live cell/dead cell analysis by FACS; assay type: cell-based, human; conditions: 1 and 10 μM
Procedure: FIGS. 10D-10F show the results of live cell/dead cell analysis. MDA-MB-231 cells were treated with Bedaquiline (1 and 10 μM) or vehicle alone, for 48, 72 and 120 hours, and then subjected to live/dead analysis by FACS. […] However, at 72 and 120 hours (FIGS. 10E and 10F), a decrease in the live cell population and an increase in the dead cell population can be seen. […] Two-way ANOVA, Sidak's multiple comparisons test, ns=not significant, *p<0.01, **p<0.001, ***p<0.0005.

COc1nc2ccc(Br)cc2cc1[C@@H](c1ccccc1)[C@@](O)(CCN(C)C)c1cccc2ccccc12 [Bedaquiline, (1R,2S)-1-(6-bromo-2-methoxyquinolin-3-yl)-4-(dimethylamino)-2-naphthalen-1-yl-1-phenylbutan-2-ol]
inhibition at 10 µM ([1]; Homo sapiens, MDA-MB-231, 10 μM, 120 hours of treatment, read-out: maximal inhibition of mitochondrial ATP production): 75%
block of 3D mammosphere formation ([2]; MDA-MB-231, 10 μM): ~ 65%
toxicity for chick embryos (egg survival) [3]: not toxic
block of cell migration [4]: ~ 50%
levels of ATP5F1C protein expression [5]: reduced in a sustained way
p21 protein expression [6]: decreased in a concentration-dependent manner
PARP protein expression [7]: decreased in a concentration-dependent manner
2D monolayer growth [8]: No effect
S-phase population ([9]; 1 and 10 μM, 72 and 120 hours): decrease
sub-G0-G1 population ([9]; 1 and 10 μM, 72 and 120 hours): increase
cell cycle populations ([9]; 1 and 10 μM, 48 hours): No effects were detectable
increase in the sub-G0-G1 population ([9]; after 120 hours of treatment): 2 fold
reduction of cells in S-phase ([9]; after 120 hours of treatment): 2 fold
inhibition of spontaneous metastasis ([10]; CAM, 120 μM treatment, daily for 8 days, qPCR Human Alu, vs control): 84%
tumor growth (average tumor weight) ([10]; CAM, treated daily for 8 days, day E18): no statistically significant effect
2D monolayer growth [11]: effectively inhibits 2D growth
apoptotic cell population (early or late) ([12]; 72 and 120 hours): no increase
dead cell population ([12]; 72 and 120 hours): increase
live cell population ([12]; 72 and 120 hours): decrease
live/dead cell populations ([12]; 48 hours): No effects were detectable

CCCCCCCCCCCCCC(=O)OCCCCc1ccc2nc(OC)c([C@@H](c3ccccc3)[C@@](O)(CCN(C)C)c3cccc4ccccc34)cc2c1 [structure [4B]]
potency relative to unconjugated Bedaquiline, inducing ATP-depletion ([1]; initial/early assessment): 2-5 fold
potency relative to unconjugated Bedaquiline, inhibiting mammosphere formation ([2]; initial/early assessment): 2-5 fold
potency relative to unconjugated Bedaquiline, inhibiting spontaneous metastasis ([10]; initial/early assessment, CAM assay): 2-5 fold
